Reference: patent US20150152091A1, “CROP ENHANCEMENT” (Syngenta Participations AG, priority 2012, published 2015)

Legend:
Type in all cases: in vivo
[1] = system: temperate cauliflower Spacestar seeds (Brassica oleracea cv Botrytis); experiment: Standard paper germination test for Brassica, suboptimal conditions; conditions: 25 μM, 10° C. in the light
Description: The effect of compounds of Formula (I) on the germination of Brassica oleracea cv Botrytis or common cauliflower was tested on two types of cauliflowers: temperate types and tropical types. These two types were chosen because they display different sensitivities to the light conditions and temperature during germination. Germination of a sensitive temperate type is inhibited by light at 10° C. while for the tropical types germination at 20° is stimulated by the presence of light. […] The temperate seed batches tested are part of commercially produced seed batches of various varieties which are known to be sensitive to light at 10° C. These seeds were harvested and cleaned according standard commercial procedures. Ready seed batches were used (Ready indicates the processing level of these seeds: they have been cleaned and sized but received no other treatments). The tropical seed batches tested are part of seed batches produced as basic seed (for maintenance of the parental line) and were processed accordingly. Germination was assessed using the standard paper germination test for Brassica: Fifty seeds were placed on blue germination paper, which was moistened with the appropriate solutions, in closed oblong germination boxes. Each condition was tested in duplo. Germination boxes were placed in controlled germination cabinets with the appropriate temperature and light conditions. Germination of seeds was counted at regular intervals. Seeds were considered to be germinated when the radical had protruded the testa and endosperm (radical size approximately 1 mm). Test compounds were dissolved in DMSO at a concentration of 50 mM and stored at −20° C. The strigolactone analogue GR24 (commercially available as a racemic mixture of 2 diastereoisomers, referred to as “synthetic strigolactone GR-24” and first prepared by Johnson A. W. & all, Journal of the Chemical Society, Perkin Transactions 1, 1981, page 1734-1743) was included as positive control. Germination solutions were prepared by diluting the stock solutions with demineralized water till 25 μM. As control solutions demineralized water and a 0.05% v/v DMSO solution were used.

[2] = system: Soybean seeds cv. Toliman; experiment: Soybean seedling emergence in saturated cold test (seed treatment); conditions: for Total shoot dry mass: per tray
Description: (§1) Soybean seeds cv. Toliman were treated with a test compound of formula I formulated as FS100, at a dose of 0.05 g ai/kg, 0.005 g ai/kg, or 0.0001 g ai/kg seeds. Seeds were planted on 2 cm levelled pre-chilled moist sand and covered with a 2 cm layer of a mixture of steamed soil and sand (1:1). Enough cold water (10° C.) was added to the sand-soil mixture to adjust soil moisture to 60% water holding capacity. The seeds were incubated at 10° C. in the dark for 10 days and transferred into a chamber with alternating temperature (25° C. day/23° C. night) and light source (12 h) for 10 days. Seedling emergence in % and dry mass of above parts of seedling per tray was determined at the end of the incubation period. The test was performed using four replicates (4×50 seeds).

[3] = system: Soybean seeds cv. Toliman; experiment: Soybean seedling emergence in saturated warm test (seed treatment)
Description: as §1, with “seeds). Treated seeds used in the saturated cold test were evaluated in parallel in a saturated warm test. Test conditions were the same as those described for the 10 day warm incubation period of the saturated cold test. Briefly, seeds were placed onto a saturated sand layer of 2 cm and covered with saturated sand-soil mixture (60% WHC) at room temperature. The seeds were incubated 10 days at 25° C. day/23° C. night and 12 h light. Seedling emergence and shoot dry mass was determined as described in the saturated cold test method. The test was performed using four replicates each 50 seeds.” for “seeds).”

[4] = Spacestar 11B313 (cold-sensitive), set B
[5] = Spacestar 11B314 (not cold sensitive), set B
[6] = 0.05 g ai/kg seeds, FS100, 10 days 10° C. dark then 10 days 25/23° C.
[7] = 0.05 g ai/kg seeds, 10 days 25/23° C.
[8] = Spacestar 11B313 (cold-sensitive), set A
[9] = Spacestar 11B314 (not cold sensitive), set A

SMILES: CC1=CC(OC=C2C(=O)NC3c4cccc(C)c4CC23)OC1=O (mixture of isomers) [Compound A9]
- Gmax (%), total germination as percentage of sown seeds [1, 4]: 59.8%
- stimulation (%), extra germination compared to the DMSO treatment [1, 4]: 10.6%
- Gmax (%), total germination as percentage of sown seeds [1, 5]: 94.0%
- stimulation (%), extra germination compared to the DMSO treatment [1, 5]: 9.3%

SMILES: CC1=CC(OC=C2C(=O)NC3c4cccc(Br)c4CC23)OC1=O (stereo not shown) [Compound A2]
- Seedling emergence (%) ([2]; 0.0001 g ai/kg seeds, FS100): 48.5%
- Total shoot dry mass ([2]; 0.0001 g ai/kg seeds): 3.810 g
- Seedling emergence (%) ([2]; 0.005 g ai/kg seeds, FS100): 49.5%
- Total shoot dry mass ([2]; 0.005 g ai/kg seeds): 3.725 g
- Seedling emergence (%) [2, 6]: 56%
- Total shoot dry mass ([2]; 0.05 g ai/kg seeds): 3.993 g
- Seedling emergence (%) ([3]; 0.0001 g ai/kg seeds): 89%
- Total shoot dry mass ([3]; 0.0001 g ai/kg seeds): 5.763 g
- Seedling emergence (%) ([3]; 0.005 g ai/kg seeds): 87.5%
- Total shoot dry mass ([3]; 0.005 g ai/kg seeds): 6.105 g
- Total shoot dry mass ([3]; 0.05 g ai/kg seeds): 6.325 g
- Seedling emergence (%) [3, 7]: 91.5%

SMILES: CC1=C[C@H](O/C=C2/C(=O)O[C@@H]3c4ccccc4C[C@H]23)OC1=O [GR24, reference compound]
- Gmax (%), total germination as percentage of sown seeds [1, 8]: 71.5%
- stimulation (%), extra germination compared to the DMSO treatment [1, 8]: 19.2%
- Gmax (%), total germination as percentage of sown seeds [1, 4]: 80.0%
- stimulation (%), extra germination compared to the DMSO treatment [1, 4]: 48.1%
- Gmax (%), total germination as percentage of sown seeds [1, 9]: 93.5%
- stimulation (%), extra germination compared to the DMSO treatment [1, 9]: 3.3%
- Gmax (%), total germination as percentage of sown seeds [1, 5]: 93.0%
- stimulation (%), extra germination compared to the DMSO treatment [1, 5]: 8.1%

SMILES: CC1=CC(OC=C2C(=O)NC3c4ccccc4CC23)OC1=O (stereo not shown) [Compound B1]
- Seedling emergence (%) ([2]; 0.0001 g ai/kg seeds, FS100): 58.5%
- Total shoot dry mass ([2]; 0.0001 g ai/kg seeds): 4.440 g
- Seedling emergence (%) ([2]; 0.005 g ai/kg seeds, FS100): 67%
- Total shoot dry mass ([2]; 0.005 g ai/kg seeds): 5.065 g
- Seedling emergence (%) [2, 6]: 44.5%
- Total shoot dry mass ([2]; 0.05 g ai/kg seeds): 3.365 g
- Seedling emergence (%) ([3]; 0.0001 g ai/kg seeds): 91%
- Total shoot dry mass ([3]; 0.0001 g ai/kg seeds): 5.778 g
- Seedling emergence (%) ([3]; 0.005 g ai/kg seeds): 94%
- Total shoot dry mass ([3]; 0.005 g ai/kg seeds): 6.440 g
- Total shoot dry mass ([3]; 0.05 g ai/kg seeds): 5.935 g
- Seedling emergence (%) [3, 7]: 89%
- Gmax (%), total germination as percentage of sown seeds [1, 8]: 60.5%
- stimulation (%), extra germination compared to the DMSO treatment [1, 8]: 0.8%
- Gmax (%), total germination as percentage of sown seeds [1, 9]: 93.5%
- stimulation (%), extra germination compared to the DMSO treatment [1, 9]: 3.3%

SMILES: CC1=C(C)C(OC=C2C(=O)NC3c4ccccc4CC23)OC1=O (stereo not shown) [Compound A7]
- Gmax (%), total germination as percentage of sown seeds [1, 4]: 68.5%
- stimulation (%), extra germination compared to the DMSO treatment [1, 4]: 26.9%
- Gmax (%), total germination as percentage of sown seeds [1, 5]: 95.0%
- stimulation (%), extra germination compared to the DMSO treatment [1, 5]: 10.5%

SMILES: CC1=CC(OC=C2C(=O)N(C)C3c4ccccc4CC23)OC1=O (stereo not shown) [Compound A8]
- Gmax (%), total germination as percentage of sown seeds [1, 4]: 73.0%
- stimulation (%), extra germination compared to the DMSO treatment [1, 4]: 35.2%
- Gmax (%), total germination as percentage of sown seeds [1, 5]: 93.5%
- stimulation (%), extra germination compared to the DMSO treatment [1, 5]: 8.7%

SMILES: CC1=CC(OC=C2C(=O)N(C(=O)OC(C)(C)C)C3c4ccccc4CC23)OC1=O (mixture of isomers) [Compound A5]
- Seedling emergence (%) ([2]; 0.0001 g ai/kg seeds, FS100): 48%
- Total shoot dry mass ([2]; 0.0001 g ai/kg seeds): 3.420 g
- Seedling emergence (%) ([2]; 0.005 g ai/kg seeds, FS100): 51.5%
- Total shoot dry mass ([2]; 0.005 g ai/kg seeds): 3.815 g
- Seedling emergence (%) [2, 6]: 55%
- Total shoot dry mass ([2]; 0.05 g ai/kg seeds): 4.105 g
- Seedling emergence (%) ([3]; 0.0001 g ai/kg seeds): 91%
- Total shoot dry mass ([3]; 0.0001 g ai/kg seeds): 6.260 g
- Seedling emergence (%) ([3]; 0.005 g ai/kg seeds): 91.5%
- Total shoot dry mass ([3]; 0.005 g ai/kg seeds): 6.095 g
- Total shoot dry mass ([3]; 0.05 g ai/kg seeds): 6.148 g
- Seedling emergence (%) [3, 7]: 91.5%
- Gmax (%), total germination as percentage of sown seeds [1, 8]: 74.5%
- stimulation (%), extra germination compared to the DMSO treatment [1, 8]: 24.2%
- Gmax (%), total germination as percentage of sown seeds [1, 9]: 92.5%
- stimulation (%), extra germination compared to the DMSO treatment [1, 9]: 2.2%

SMILES: CC1=CC(OC=C2C(=O)NC3c4ccccc4CC23)OC1=O (stereo not shown) [Compound A1]
- Seedling emergence (%) ([2]; 0.0001 g ai/kg seeds, FS100): 67.5%
- Total shoot dry mass ([2]; 0.0001 g ai/kg seeds): 5.298 g
- Seedling emergence (%) ([2]; 0.005 g ai/kg seeds, FS100): 63.5%
- Total shoot dry mass ([2]; 0.005 g ai/kg seeds): 5.018 g
- Seedling emergence (%) [2, 6]: 54.5%
- Total shoot dry mass ([2]; 0.05 g ai/kg seeds): 4.438 g
- Seedling emergence (%) ([3]; 0.0001 g ai/kg seeds): 88.5%
- Total shoot dry mass ([3]; 0.0001 g ai/kg seeds): 6.053 g
- Seedling emergence (%) ([3]; 0.005 g ai/kg seeds): 89%
- Total shoot dry mass ([3]; 0.005 g ai/kg seeds): 6.010 g
- Total shoot dry mass ([3]; 0.05 g ai/kg seeds): 6.023 g
- Seedling emergence (%) [3, 7]: 91%
- Gmax (%), total germination as percentage of sown seeds [1, 8]: 77.0%
- stimulation (%), extra germination compared to the DMSO treatment [1, 8]: 28.3%
- Gmax (%), total germination as percentage of sown seeds [1, 9]: 90.5%
- stimulation (%), extra germination compared to the DMSO treatment [1, 9]: 0.0%

SMILES: CC1=CC(OC=C2C(=O)N(c3ccccc3)C3c4ccccc4CC23)OC1=O (stereo not shown) [Compound A3]
- Seedling emergence (%) ([2]; 0.0001 g ai/kg seeds, FS100): 67%
- Total shoot dry mass ([2]; 0.0001 g ai/kg seeds): 4.838 g
- Seedling emergence (%) ([2]; 0.005 g ai/kg seeds, FS100): 57%
- Total shoot dry mass ([2]; 0.005 g ai/kg seeds): 4.540 g
- Seedling emergence (%) [2, 6]: 51.5%
- Total shoot dry mass ([2]; 0.05 g ai/kg seeds): 3.850 g
- Seedling emergence (%) ([3]; 0.0001 g ai/kg seeds): 91%
- Total shoot dry mass ([3]; 0.0001 g ai/kg seeds): 6.158 g
- Seedling emergence (%) ([3]; 0.005 g ai/kg seeds): 87%
- Total shoot dry mass ([3]; 0.005 g ai/kg seeds): 6.235 g
- Total shoot dry mass ([3]; 0.05 g ai/kg seeds): 5.918 g
- Seedling emergence (%) [3, 7]: 81%
- Gmax (%), total germination as percentage of sown seeds [1, 8]: 74.5%
- stimulation (%), extra germination compared to the DMSO treatment [1, 8]: 24.2%
- Gmax (%), total germination as percentage of sown seeds [1, 9]: 89.5%
- stimulation (%), extra germination compared to the DMSO treatment [1, 9]: −1.1%

SMILES: CC(=O)N1C(=O)C(=COC2C=C(C)C(=O)O2)C2Cc3ccccc3C21 (stereo not shown) [Compound A4]
- Seedling emergence (%) ([2]; 0.0001 g ai/kg seeds, FS100): 62%
- Total shoot dry mass ([2]; 0.0001 g ai/kg seeds): 4.788 g
- Seedling emergence (%) ([2]; 0.005 g ai/kg seeds, FS100): 62.5%
- Total shoot dry mass ([2]; 0.005 g ai/kg seeds): 4.550 g
- Seedling emergence (%) [2, 6]: 61.5%
- Total shoot dry mass ([2]; 0.05 g ai/kg seeds): 4.850 g
- Seedling emergence (%) ([3]; 0.0001 g ai/kg seeds): 89%
- Total shoot dry mass ([3]; 0.0001 g ai/kg seeds): 6.035 g
- Seedling emergence (%) ([3]; 0.005 g ai/kg seeds): 90%
- Total shoot dry mass ([3]; 0.005 g ai/kg seeds): 5.908 g
- Total shoot dry mass ([3]; 0.05 g ai/kg seeds): 5.920 g
- Seedling emergence (%) [3, 7]: 86%
- Gmax (%), total germination as percentage of sown seeds [1, 8]: 82.0%
- stimulation (%), extra germination compared to the DMSO treatment [1, 8]: 36.7%
- Gmax (%), total germination as percentage of sown seeds [1, 9]: 91.0%
- stimulation (%), extra germination compared to the DMSO treatment [1, 9]: 0.6%
